Experimental data published in US7625887B2, “Receptor agonists” (Takeda Pharmaceutical Company Limited, priority 2003, dated 2009).

Columns and labels:
[1] = test system: NCI-H716 cells; test: intracellular cAMP production increasing action in NCI-H716 cells; type: cell-based, human; conditions: 10 μM, 2 hrs; production amount in TLCA (50 μM) was 100%; Base 11
Experimental: NCI-H716 (ATCC) was suspended in a medium (Dulbecco's Modified Eagle Medium (DMEM, Invitrogen) supplemented with 10% fetal bovine serum (Invitrogen), 100 U/ml penicillin and 100 μg/ml streptomycin), seeded in a 96 well plate, cultured for 2 days and used for cAMP production assay. As a cAMP assay buffer, modified Krebs-Ringer bicarbonate buffer (KRBH, 116 mM NaCl, 4.7 mM KCl, 1.2 mM KH2PO4, 1.2 MM MgSO4, 2.5 mM CaCl2, 25 mM NaHCO3, 24 mM HEPES pH 7.3), supplemented with glucose 5.5 mM, bovine serum albumin (BSA) 0.1%, and 3-isobutyl-1-methylxanthine (IBMX, Sigma) 1 mM, was used. The cells were washed once with cAMP assay buffer. Bile acids (50 μM) diluted with cAMP assay buffer or the compounds of the present invention (10 μM) were added thereto and the cells were incubated for 2 hrs. The culture supernatant was discarded, and the cAMP production amount was measured by cAMP Screen System (ABI). In the Table, Base means non-addition of a test compound.

[2] = target: T1, rat TGR5 (Rattus norvegicus, UniProt Q80T02); test: cAMP production increasing activity in rat type TGR5 expressing CHO cells; type: cell-based; conditions: 0.5 h, read-out: cAMP producing activity (control %)
T1 construct: expressed in transfected cells; host or cells: CHO cells
T1 sequence (Q80T02 1-329): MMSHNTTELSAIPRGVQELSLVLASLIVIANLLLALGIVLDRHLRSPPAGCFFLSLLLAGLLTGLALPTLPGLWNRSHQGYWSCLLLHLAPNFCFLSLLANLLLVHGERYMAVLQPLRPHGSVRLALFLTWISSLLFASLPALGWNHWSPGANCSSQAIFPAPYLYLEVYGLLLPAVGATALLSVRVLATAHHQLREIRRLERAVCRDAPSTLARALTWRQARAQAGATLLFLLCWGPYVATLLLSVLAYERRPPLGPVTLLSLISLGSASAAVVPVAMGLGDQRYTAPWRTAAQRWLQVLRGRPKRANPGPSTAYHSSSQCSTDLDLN
Experimental: (§1) After culture, the cells were detached with 0.5 mM EDTA/PBS, washed with PBS, and suspended in Buffer 1 (HBSS+0.1% BSA, 25 mM HEPES pH 7.3, 0.5 mM IBMX) at a density of 1×10^7 cells/ml. The obtained cell suspension (460 μl), anti-cAMP acceptor beads (23 μl) of AlphaScreen cAMP assay kit (Perkin Elmer) and Buffer 1 (667 μl) were mixed and dispensed to a white 96 well plate (Costar) by 10 μl. Then, a test compound diluted with Buffer 1 was added to each well by 10 μl. At this time, one row of the plate was free of the cell suspension but added with anti-cAMP acceptor beads (9 μl) and Buffer 1 (441 μl) alone, and serial dilutions of cAMP were added instead of the test compound and used as the standard. A mixture of the cell suspension and the test compound contained in the plate was allowed to react at room temperature for 30 min. […] The plate was shaken at room temperature for 2.5 hrs and fluorescence intensity was measured by Fusion α (Parkin Elmer), and the cAMP concentration of each well was calculated using the cAMP standard on each plate.

[3] = target: T2, rabbit TGR5 (Oryctolagus cuniculus, UniProt Q862A8); test: cAMP production increasing activity in rabbit TGR5 expressing CHO cells; type: cell-based; conditions: Experimental Example 6; 2 μM; 10 μM lithocholic acid = 100%; average of 3 groups
T2 construct: expressed in transfected cells; host or cells: CHO cells
T2 sequence (Q862A8 1-330): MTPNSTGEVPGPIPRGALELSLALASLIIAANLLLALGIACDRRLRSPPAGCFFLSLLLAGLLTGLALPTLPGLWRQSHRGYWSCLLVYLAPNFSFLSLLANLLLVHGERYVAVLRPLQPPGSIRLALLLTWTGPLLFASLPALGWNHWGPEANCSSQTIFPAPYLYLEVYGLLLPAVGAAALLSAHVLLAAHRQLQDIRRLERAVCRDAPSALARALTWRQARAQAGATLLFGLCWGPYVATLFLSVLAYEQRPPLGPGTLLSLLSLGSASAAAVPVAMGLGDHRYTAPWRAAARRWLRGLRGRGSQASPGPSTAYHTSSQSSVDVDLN
Experimental: (§2) As the assay buffer, Hank's balanced salt solution (HBSS, Invitrogen) supplemented with 0.1% bovine serum albumin (BSA, Sigma) and 0.2 mM 3-isobutyl-1-methylxanthine (IBMX, Sigma) was used. The cells were washed twice with the assay buffer and preincubated at 37° C. for 30 min. The cells were washed twice and test compound samples (2 μM) diluted with the assay buffer were added. The cells were incubated at 37° C. for 20 min. The culture supernatant was discarded, and the cAMP production amount was measured using a cAMP Screen System (ABI).

[4] = test system: mock CHO cells free of human TGR5 expression; test: cAMP production increasing activity in mock CHO cells free of human TGR5 expression; type: cell-based; conditions: Experimental Example 5; test compounds 2 μM; Base 0.19; average of 3 groups
Experimental: as §2, with “were washed twice, and test” for “were washed twice and test”, “compound samples (10 μM) diluted” for “compound samples (2 μM) diluted”, “assay buffer to various concentrations were added.” for “assay buffer were added.”

[5] = target: T3, human TGR5 (Homo sapiens, UniProt Q8TDU6); test: cAMP production increasing activity in human TGR5 expressing CHO cells; type: cell-based; conditions: test compound 1 μM, 30 min; 1 μM lithocholic acid = 100%, no addition = 0%; average of 3 groups
T3 construct: expressed in transfected cells; host or cells: CHO cells
T3 sequence (Q8TDU6 1-330): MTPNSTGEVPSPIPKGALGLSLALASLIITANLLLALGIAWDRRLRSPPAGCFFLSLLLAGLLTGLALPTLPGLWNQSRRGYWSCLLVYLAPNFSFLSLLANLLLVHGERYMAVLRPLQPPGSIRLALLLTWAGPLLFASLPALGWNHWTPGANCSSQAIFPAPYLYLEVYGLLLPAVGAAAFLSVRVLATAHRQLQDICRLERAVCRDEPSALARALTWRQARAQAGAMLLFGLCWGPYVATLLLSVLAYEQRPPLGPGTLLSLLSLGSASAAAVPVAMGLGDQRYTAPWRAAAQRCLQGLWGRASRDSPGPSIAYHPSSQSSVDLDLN

[6] = test system: rat intestine primary culture cells; test: GLP-1 secretion from rat intestine primary culture cells; type: cell-based; conditions: test compound 20 μM, 150 min
Experimental: Terminal ileum and colon mucous membrane were removed from rat (Wistar, male, Charles River Japan, Inc.) and subjected to an enzyme treatment to give a cell dispersion according to the following method.
The enzyme solution used was obtained by dissolving 5 mg/ml Collagenase (Sigma), 5 mg/ml Hyaluronidase (Sigma) and 0.5 mg/ml DNaseI (Sigma) in a medium. The medium used was Dulbecco's Modified Eagle Medium (DMEM, Invitrogen) supplemented with 4.5 g/l Glucose, 5% FBS (Invitrogen), 100 units/ml Penicillin (Invitrogen), 100 μg/ml Streptomycin (Invitrogen), 50 μg/ml Gentamicin (Invitrogen) and 20 mM Hepes (pH 7.3). After digestion by the enzyme solution at 37° C., the tissue sections were prepared into dispersed cells by passing through a pipette 7 times and the cells were collected. The collected cells were washed with a buffer (incubation buffer) obtained by adding 5.5 mM Glucose and 0.1% BSA to a modified Krebs-Ringer bicarbonate buffer (KRBH, 116 mM NaCl, 4.7 mM KCl, 1.2 mM KH2PO4, 1.2 mM MgSO4, 2.5 mM CaCl2, 25 mM NaHCO3, 24 mM HEPES, pH 7.3), and preincubated at 37° C. under 5% CO2 for 30 min. 0.1 μM Phorbol ester (Wako), 1% DPPIV inhibitor (Linco) and a test compound were added to the above-mentioned incubation buffer, and the obtained buffer was added to the cells after the aforementioned preincubation and incubated for 150 min. The culture supernatant was collected and cryopreserved. The concentration of GLP-1 released in the culture supernatant was measured using an ELISA kit (Linco).

[7] = target: T3, human TGR5; test: cAMP production increasing activity in human TGR5 expressing CHO cells; type: cell-based; conditions: read-out: EC50 value (concentration necessary to make the cAMP production amount 50%)
[8] = test system: guinea pig TGR5; test: cAMP production increasing activity in guinea pig TGR5 expressing CHO cells; type: cell-based; conditions: test compound 2 μM; 10 μM lithocholic acid = 100%; average of 3 groups
Experimental: as §1, with “The guinea pig type TGR5 expressing CHO cells were seeded in one 150 cm^2 flask at 1×10^7 cells, and cultured overnight at 37° C., 5% CO2. After” for “After”

cAMP production increasing activity (control %) [3]	cAMP production increasing activity (control %) [5]	SMILES	cAMP production increasing activity (%) [1]	activation at 2 µM [2]	cAMP production increasing activity [4]	GLP-1 (% relative to non-addition) [6]	EC50 [7]	cAMP producing activity (control %) [8]
99 control %	96 control %	FC(F)(F)c1cc(CN2CCOc3nccc(-c4ccccc4)c3C2)cc(C(F)(F)F)c1 [Example 9C, 4-[3,5-bis(trifluoromethyl)benzyl]-6-phenyl-2,3,4,5-tetrahydropyrido[3,2-f][1,4]oxazepine]	109%	112%	0.2 pmol	–	–	–
–	–	CC(=O)NCc1cccc(C2OC(CC(=O)NCc3ccccc3F)C(=O)N(CC(C)(C)C)c3ccc(Cl)cc32)c1 (single isomer, unassigned; (+)) [Reference Example 33, (+)-2-[3,5-trans-5-[3-(acetylaminomethyl)phenyl]-7-chloro-1-neopentyl-2-oxo-1,2,3,5-tetrahydro-4,1-benzoxazepin-3-yl]-N-(2-fluorobenzyl)acetamide]	–	92%	–	201 % relative to non-addition	< 100 nM	–
–	–	O=S(=O)(c1cc(C(F)(F)F)cc(C(F)(F)F)c1)N1CCCOc2nccc(-c3ccccc3)c2C1 [Example 23C, 5-{[3,5-bis(trifluoromethyl)phenyl]sulfonyl}-7-phenyl-3,4,5,6-tetrahydro-2H-pyrido[2,3-b][1,5]oxazocine]	–	148%	–	133 % relative to non-addition	–	119 control %
–	–	CC(c1cc(C(F)(F)F)cc(C(F)(F)F)c1)N1CCOc2nccc(-c3ccccc3)c2C1.Cl (stereo not drawn) [Example 33C, 4-{1-[3,5-bis(trifluoromethyl)phenyl]ethyl}-6-phenyl-2,3,4,5-tetrahydropyrido[3,2-f][1,4]oxazepine hydrochloride]	–	149%	–	214 % relative to non-addition	< 100 nM	111 control %
116 control %	100 control %	O=C(c1cc(C(F)(F)F)cc(C(F)(F)F)c1)N1CCOc2nccc(-c3ccccc3)c2C1 [Example 14C, 4-[3,5-bis(trifluoromethyl)benzoyl]-6-phenyl-2,3,4,5-tetrahydropyrido[3,2-f][1,4]oxazepine]	–	–	0.17 pmol	–	–	–
